Assay results from the NIST ThermoML archive (doi:10.1021/je100362p).

Columns and labels:
[1] = xn = mol fraction of the nth substance listed; details: 101 kPa, Liquid; for speed of sound: Sing-around technique in a fixed-path interferometer
[2] = refractive index (Na D-line) (dimensionless); xn = mol fraction of the nth substance listed; details: 101 kPa, Liquid, Standard Abbe refractometry

Cc1ccc(O)cc1 [4-methylphenol] + CCCCCCCCCCO
Details	mass density, 298.15 K [kg/m3]	mass density, 303.15 K [kg/m3]	mass density, 308.15 K [kg/m3]	refractive index, 298.15 K	refractive index, 303.15 K	refractive index, 308.15 K	speed of sound, 298.15 K [m/s]	speed of sound, 303.15 K [m/s]	speed of sound, 308.15 K [m/s]
[1], x1 = 0.079	836.102	832.641	829.175	–	–	–	1384.9	1367.8	1350.9
[1], x1 = 0.1424	844.261	840.772	837.278	–	–	–	1389	1371.9	1355.1
[1], x1 = 0.2213	855.053	851.531	847.999	–	–	–	1394	1376.9	1360
[1], x1 = 0.2915	865.315	861.764	858.196	–	–	–	1398.6	1381.6	1364.7
[1], x1 = 0.3611	876.182	872.603	869.001	–	–	–	1403.5	1386.4	1369.6
[1], x1 = 0.418	885.652	882.051	878.417	–	–	–	1407.7	1390.8	1373.9
[1], x1 = 0.4915	898.718	895.088	891.418	–	–	–	1413.7	1396.8	1379.9
[1], x1 = 0.5566	911.201	907.546	903.844	–	–	–	1419.6	1402.7	1385.9
[1], x1 = 0.6321	926.903	923.218	919.477	–	–	–	1427.5	1410.7	1394
[1], x1 = 0.7041	943.248	939.531	935.758	–	–	–	1436.1	1419.4	1402.8
[1], x1 = 0.7628	957.751	954.009	950.207	–	–	–	1444	1427.3	1411
[1], x1 = 0.8229	973.785	970.012	966.196	–	–	–	1453.2	1436.7	1420.2
[1], x1 = 0.8793	990.126	986.325	982.485	–	–	–	1462.3	1446.2	1429.9
[1], x1 = 0.9382	1008.68	1004.85	1000.99	–	–	–	1474.2	1458	1442.4
[1], x1 = 1	1030.14	1026.28	1022.38	–	–	–	1486.4	1470.7	1455
[2], x1 = 0.079	–	–	–	1.43878	1.43659	1.43439	–	–	–
[2], x1 = 0.1424	–	–	–	1.44253	1.44025	1.43792	–	–	–
[2], x1 = 0.2213	–	–	–	1.44759	1.44524	1.44279	–	–	–
[2], x1 = 0.2915	–	–	–	1.45252	1.45006	1.44748	–	–	–
[2], x1 = 0.3611	–	–	–	1.45786	1.45529	1.45263	–	–	–
[2], x1 = 0.418	–	–	–	1.46259	1.45994	1.45719	–	–	–
[2], x1 = 0.4915	–	–	–	1.46921	1.46649	1.46363	–	–	–
[2], x1 = 0.5566	–	–	–	1.47562	1.47279	1.46987	–	–	–
[2], x1 = 0.6321	–	–	–	1.48379	1.48088	1.47785	–	–	–
[2], x1 = 0.7041	–	–	–	1.49234	1.48935	1.48629	–	–	–
[2], x1 = 0.7628	–	–	–	1.49988	1.49689	1.49381	–	–	–
[2], x1 = 0.8229	–	–	–	1.50829	1.50524	1.50212	–	–	–
[2], x1 = 0.8793	–	–	–	1.51677	1.51369	1.51055	–	–	–
[2], x1 = 0.9382	–	–	–	1.52626	1.52321	1.52011	–	–	–
[2], x1 = 1	–	–	–	1.537	1.534	1.531	–	–	–

Cc1cccc(O)c1 [3-methylphenol] + CCCCCCCCCCO
Details	mass density, 298.15 K [kg/m3]	mass density, 303.15 K [kg/m3]	mass density, 308.15 K [kg/m3]	refractive index, 298.15 K	refractive index, 303.15 K	refractive index, 308.15 K	speed of sound, 298.15 K [m/s]	speed of sound, 303.15 K [m/s]	speed of sound, 308.15 K [m/s]
[1], x1 = 0.0818	836.406	832.948	829.481	–	–	–	1384.4	1367.3	1350.5
[1], x1 = 0.1443	844.417	840.933	837.44	–	–	–	1388.1	1371	1354.3
[1], x1 = 0.2191	854.601	851.084	847.557	–	–	–	1392.5	1375.5	1358.6
[1], x1 = 0.27	861.935	858.394	854.842	–	–	–	1395.7	1378.5	1361.8
[1], x1 = 0.3513	874.407	870.825	867.235	–	–	–	1400.5	1383.7	1366.8
[1], x1 = 0.4154	884.964	881.35	877.727	–	–	–	1404.8	1388	1371.2
[1], x1 = 0.4864	897.533	893.881	890.219	–	–	–	1410.1	1393.4	1376.6
[1], x1 = 0.5447	908.582	904.899	901.205	–	–	–	1415.1	1398.3	1381.5
[1], x1 = 0.6205	924.111	920.384	916.647	–	–	–	1422.3	1405.6	1388.9
[1], x1 = 0.6951	940.809	937.04	933.259	–	–	–	1430.7	1414	1397.5
[1], x1 = 0.7472	953.452	949.651	945.837	–	–	–	1437.2	1420.7	1404.4
[1], x1 = 0.8163	971.635	967.793	963.936	–	–	–	1447.3	1431.1	1414.8
[1], x1 = 0.8738	988.185	984.309	980.414	–	–	–	1457.3	1441	1424.9
[1], x1 = 0.9325	1006.6	1002.69	998.753	–	–	–	1468.8	1452.8	1436.8
[1], x1 = 1	1030.05	1026.09	1022.12	–	–	–	1480.9	1465.2	1449.6
[2], x1 = 0.0818	–	–	–	1.43899	1.43686	1.43464	–	–	–
[2], x1 = 0.1443	–	–	–	1.44269	1.44048	1.43816	–	–	–
[2], x1 = 0.2191	–	–	–	1.44749	1.44514	1.44269	–	–	–
[2], x1 = 0.27	–	–	–	1.45104	1.44858	1.44602	–	–	–
[2], x1 = 0.3513	–	–	–	1.45712	1.45453	1.45183	–	–	–
[2], x1 = 0.4154	–	–	–	1.46234	1.45965	1.45687	–	–	–
[2], x1 = 0.4864	–	–	–	1.46869	1.46584	1.46299	–	–	–
[2], x1 = 0.5447	–	–	–	1.47429	1.47138	1.46848	–	–	–
[2], x1 = 0.6205	–	–	–	1.48226	1.47932	1.47636	–	–	–
[2], x1 = 0.6951	–	–	–	1.49092	1.48799	1.48499	–	–	–
[2], x1 = 0.7472	–	–	–	1.49755	1.49459	1.49161	–	–	–
[2], x1 = 0.8163	–	–	–	1.50709	1.50419	1.50126	–	–	–
[2], x1 = 0.8738	–	–	–	1.51581	1.51296	1.51007	–	–	–
[2], x1 = 0.9325	–	–	–	1.5256	1.52274	1.51982	–	–	–
[2], x1 = 1	–	–	–	1.538	1.535	1.532	–	–	–

COc1ccccc1 [anisole] + CCCCCCCCCCO
Details	mass density, 298.15 K [kg/m3]	mass density, 303.15 K [kg/m3]	mass density, 308.15 K [kg/m3]	refractive index, 298.15 K	refractive index, 303.15 K	refractive index, 308.15 K	speed of sound, 298.15 K [m/s]	speed of sound, 303.15 K [m/s]	speed of sound, 308.15 K [m/s]
[1], x1 = 0.0817	833.984	830.48	826.944	–	–	–	1377.1	1359.8	1342.7
[1], x1 = 0.144	840.044	836.478	832.875	–	–	–	1375.3	1357.9	1340.7
[1], x1 = 0.2047	846.31	842.682	839.02	–	–	–	1373.6	1356.1	1338.8
[1], x1 = 0.273	853.826	850.126	846.4	–	–	–	1371.9	1354.2	1336.8
[1], x1 = 0.3484	862.774	858.992	855.195	–	–	–	1370.2	1352.4	1334.8
[1], x1 = 0.4099	870.64	866.789	862.929	–	–	–	1369.4	1351.4	1333.6
[1], x1 = 0.4874	881.37	877.429	873.48	–	–	–	1368.8	1350.8	1332.8
[1], x1 = 0.544	889.862	885.853	881.832	–	–	–	1369.2	1350.9	1332.8
[1], x1 = 0.6071	900.075	895.987	891.877	–	–	–	1370.4	1351.9	1333.6
[1], x1 = 0.6699	911.097	906.926	902.722	–	–	–	1372.3	1353.6	1335
[1], x1 = 0.7359	923.763	919.5	915.191	–	–	–	1375.5	1356.5	1337.6
[1], x1 = 0.8171	941.067	936.682	932.241	–	–	–	1381.6	1362.2	1343
[1], x1 = 0.91	963.68	959.139	954.549	–	–	–	1392.6	1372.8	1352.9
[1], x1 = 0.9464	973.453	968.846	964.201	–	–	–	1398	1377.9	1357.9
[1], x1 = 1	989.145	984.433	979.712	–	–	–	1406.9	1386.8	1366.5
[2], x1 = 0.0817	–	–	–	1.43761	1.4356	1.43301	–	–	–
[2], x1 = 0.144	–	–	–	1.44029	1.43803	1.43539	–	–	–
[2], x1 = 0.2047	–	–	–	1.44304	1.44069	1.43799	–	–	–
[2], x1 = 0.273	–	–	–	1.44629	1.44389	1.44125	–	–	–
[2], x1 = 0.3484	–	–	–	1.45029	1.44799	1.44522	–	–	–
[2], x1 = 0.4099	–	–	–	1.45394	1.45164	1.44877	–	–	–
[2], x1 = 0.4874	–	–	–	1.45908	1.45684	1.45398	–	–	–
[2], x1 = 0.544	–	–	–	1.46319	1.46099	1.45815	–	–	–
[2], x1 = 0.6071	–	–	–	1.46829	1.46616	1.46323	–	–	–
[2], x1 = 0.6699	–	–	–	1.47385	1.47181	1.46884	–	–	–
[2], x1 = 0.7359	–	–	–	1.48043	1.47853	1.47539	–	–	–
[2], x1 = 0.8171	–	–	–	1.48959	1.48774	1.48475	–	–	–
[2], x1 = 0.91	–	–	–	1.50162	1.49999	1.49685	–	–	–
[2], x1 = 0.9464	–	–	–	1.50672	1.50539	1.50231	–	–	–
[2], x1 = 1	–	–	–	1.51495	1.51395	1.51095	–	–	–
